From US20170128557A1, “Dendritic Cell Therapeutic Agent and Immunotherapeutic Agent Comprising Peptide Derived from Telomerase, and Therapeutic Methods Using the Same” (GemVax & KAEL Co., Ltd., priority 2015, published 2017) come the findings set out here.

The test system of the experiment is T cells in the peripheral blood. Description: ELISPOT assay (IFN-γ / IL-4) on patients' peripheral blood T cells before/after dendritic cell immunotherapy. The format is cell-based, human. On the procedure:
As described above, dendritic cells activate CTL to attack target cells to treat a disease. Accordingly, dendritic cells activated by peptides including PEP1 were prepared, administered to each individual, and subjected to an ELISPOT assay to observe an increase in T cell responses to each peptide in each individual.
The experiments were performed on four patients with different diseases (cancers), and a dendritic cell immunotherapy method is as follows. Mononuclear cells were collected from peripheral blood extracted from each patient and cultured. Immature dendritic cells differentiated in the mononuclear cell culture were subjected to antigen activation with tumor-associated antigen peptides including PEP1. When the dendritic cells became mature, antigen activation was carried out once more with the same peptides. The activated mature dendritic cells were separated and then administered to each patient.
More specifically, dendritic cells and NK cells used in treatment were prepared by proliferating mononuclear cells obtained from 25 ml of whole blood taken from a patient every two weeks, and differentiating the proliferated mononuclear cells into dendritic cells. That is, in this example, CD14+ mononuclear cells obtained from a peripheral blood vessel of the patient were cultured with IL-4 and GM-CFS for 6 days and proliferated, and then treated with a Streptococcus agent OK-432 for maturation. In addition, in the preparation of the dendritic cells, the dendritic cells were activated by WT1, MUC1 and other antigens.
According to cancer characteristics of a patient undergoing a gene test, an antigen test and a tumor marker test, a substance having a similar function to a tumor-associated antigen (a cancer cell lysate, tumor-specific protein, or tumor-associated peptide) was added to the dendritic cells to enhance a cancer-recognizing ability of the dendritic cells, which is an activation process. For dendritic cell activation, as tumor-associated antigens that can be used in the present invention but not limited thereto, WT1, MUC-1, CA125, MAGE-A3, CEA, NY-ESO1, survinin, Her2, and the telomerase-derived peptide PEP1 were used. As an activation method but not limited to a specific example, the dendritic cells may be cultured with such a tumor-associated antigen. The activation may be performed on immature dendritic cells or mature dendritic cells. In one specific example of the present invention, mononuclear cells were collected from a patient's peripheral blood and cultured, immature dendritic cells differentiated from the mononuclear cells were treated with a peptide to activate and thus differentiated into mature dendritic cells, and then the mature dendritic cells were treated with the same peptide for activation. An amount of the antigen used in the activation may be the same as generally used in the art as follows but is not limited thereto. For example, PEP1 may be used in an amount of 1 to 1000 μg/ml along with the antigens, and 20 μg/ml of WT1, 20 μg/ml of MUC1, 20 μg/ml of CEA, 500 μg/ml of CA125, and 20 μg/ml of HER2 may be used. The dendritic cells (1×10^7) prepared as described above were intradermally injected six times every 14 days.
The following experiment was performed to examine whether dendritic cell immunotherapy leads to an increase in T cell responses to peptides activated by an antigen. A buffy coat layer was separated from the peripheral blood of a patient subjected to the dendritic cell immunotherapy using a ficoll method (centrifugation using a ficoll), and mononuclear cells were obtained therefrom. Following 3 to 4-day culture, an ELISPOT assay was carried out. The ELISPOT assay was performed according to a protocol of an ImmunoSpot kit (Celluluar Technology Limited, USA). […] As peptide stimulants (antigen peptides), Peptivator WT1, Peptivator NY-ESO1 (Miltenyi Biotec., Germany), MUC-1, MAGE-A3, Survivin and PEP1 were added to each well at an optimum concentration and cultured for 48 hours. […]

On to “EARPALLTSRLRFIPK (homo sapiens) [PEP1, telomerase-derived peptide composed of 16 amino acids, position [611-626] on telomerase]”, for which the “Number of spots, IL-4” value (Patient 1 (stomach cancer), 7 days after six times of dendritic cell vaccine administration, negative control 17) is reported as 335; the “Number of spots, IL-4” value (Patient 1 (stomach cancer), before dendritic cell vaccine administration, negative control 1) stood at 2; the “Number of spots, IL-4” value (Patient 2 (lung cancer), 44 days after six times of dendritic cell vaccine administration, negative control 2) amounted to 410; the “Number of spots, IL-4” value (Patient 2 (lung cancer), before dendritic cell vaccine administration, negative control 0) came to 9; the “Number of spots, IL-4” value (Patient 3 (pancreatic cancer), 11 days after six times of dendritic cell vaccine administration, negative control 2) came out at 434; the “Number of spots, IL-4” value (Patient 3 (pancreatic cancer), before dendritic cell vaccine administration, negative control 8) turned out to be 4. For the same sequence, the “Number of spots, IL-4” value reads like this: (Patient 4 (breast cancer), 35 days after six times of dendritic cell vaccine administration, 2×10^5 cells/well, negative control 20) 353; (Patient 4 (breast cancer), before dendritic cell vaccine administration, 2×10^5 cells/well, negative control 17) 3. In addition, the “Number of spots, IFN-γ” value (Patient 1 (stomach cancer), 7 days after six times of dendritic cell vaccine administration, negative control 27) was found to be 567; the “Number of spots, IFN-γ” value (Patient 1 (stomach cancer), before dendritic cell vaccine administration, negative control 5) is on record as 3; the “Number of spots, IFN-γ” value (Patient 2 (lung cancer), 44 days after six times of dendritic cell vaccine administration, negative control 153, *exact number was not obtained) is ~332.5*; the “Number of spots, IFN-γ” value (Patient 2 (lung cancer), before dendritic cell vaccine administration, negative control 1) is reported as 0; the “Number of spots, IFN-γ” value (Patient 3 (pancreatic cancer), 11 days after six times of dendritic cell vaccine administration, negative control 14) turned out to be 632; the “Number of spots, IFN-γ” value (Patient 3 (pancreatic cancer), before dendritic cell vaccine administration, negative control 3) is reported as 1. For the same sequence, the “Number of spots, IFN-γ” value by setting is: (Patient 4 (breast cancer), 35 days after six times of dendritic cell vaccine administration, 2×10^5 cells/well, negative control 12) 258; (Patient 4 (breast cancer), before dendritic cell vaccine administration, 2×10^5 cells/well, negative control 13) 22. Moreover, the “ELISPOT spots compared with the negative control” value (Patient 1, after the treatment (dendritic cell vaccine six times)) is recorded as “increased”; the “ELISPOT spots compared with the negative control” value (Patient 2, after the treatment (dendritic cell vaccine 6 times)) was “increased”; the “ELISPOT spots compared with the negative control” value (Patient 3, after the treatment (dendritic cell vaccine 6 times)) is recorded as “increased”; the “ELISPOT spots compared with the negative control” value (Patient 4, after the treatment (dendritic cell vaccine 6 times)) was “increased”.
